Measurements reported in patent US20240285776A1, “SMALL MOLECULE-BASED BI-SPECIFIC IMMUNE CELL TETHERS AND THEIR USE IN THE TREATMENT OF ENVELOPED VIRUS INFECTION” (PURDUE RESEARCH FOUNDATION, priority 2021, published 2024).

Assays:
[1] = test system: Influenza A Puerto Rico/8/1934 (H1N1) virus; format: in vivo, BALB/C mice; details: for weight-loss phenomenon: 1.5 μmol/kg once daily for five consecutive days, linear PEG linkers compared to the DBCO-containing linker; for survival rate at the end of the experiment: mouse, in vivo
[2] = test system: Influenza A H1N1/PR8/1932 virus; design: species or system BALB/C mice; details: mouse, in vivo
[3] = test system: Influenza A Puerto Rico8/1934 (H1N1) virus; format: in vivo, BALB/C mice
influenza infection = experiment: Treatment of FRβ knockout mice following influenza infection; format: in vivo, folate receptor beta (FRβ) knockout mice; details: FRβ knockout mice treated following influenza infection

| SMILES | weight-loss phenomenon [1] | survival rate at the end of the experiment [1] [%] | body weight over time [2] | survival at the end of two weeks long experiment [2] | dose response of survival rate ([3]; […], 1.5, 0.5 and 0.17 μmol/kg once daily for five consecutive days) | survival rate ([3]; mouse, in vivo) [%] | survival at the end of the experiment (influenza infection) |
| --- | --- | --- | --- | --- | --- | --- | --- |
| CC(=O)N[C@H]1[C@H]([C@H](OC(=O)NCCOCCOCCOCCOCCOCCOCCOCCOCCOCCOCCOCCNC(=O)CC[C@H](NC(=O)c2ccc(NCc3cnc4nc(N)[nH]c(=O)c4n3)cc2)C(=O)O)[C@H](O)CO)OC(C(=O)O)=C[C@@H]1NC(=N)N [zan-PEG11-folate] | more pronounced | 100 | – | – | – | – | – |
| CC(=O)N[C@H]1[C@H]([C@H](OC(=O)NCCOCCOCCOCCOCCOCCOCCNC(=O)CC[C@H](NC(=O)c2ccc(NCc3cnc4nc(N)[nH]c(=O)c4n3)cc2)C(=O)O)[C@H](O)CO)OC(C(=O)O)=C[C@@H]1NC(=N)N [Compound 10] | more pronounced | 90 | did not lose any body weight | both the mice survived | increased with increasing dose | 100 | None of the mice survived |
